Counter-ions that a name gives are not always drawn. Like-named read-outs stand apart in the source and are kept apart here.
How the values were obtained:
[1] = target: T1, recombinant human Meningioma Expressed Antigen 5 (MGEA5), also referred to as O-GlcNAcase (OGA) (Homo sapiens, UniProt O60502); test: OGA biochemical assay: inhibition of FM-GlcNAc hydrolysis, fluorescence (protocol A 10 nM OGA, 1 h; protocol B 2 nM OGA, 6 h)
T1 construct: Full length OGA enzyme was purchased at OriGene (cat # TP322411); purchased OriGene TP322411
T1 sequence (O60502 1-916): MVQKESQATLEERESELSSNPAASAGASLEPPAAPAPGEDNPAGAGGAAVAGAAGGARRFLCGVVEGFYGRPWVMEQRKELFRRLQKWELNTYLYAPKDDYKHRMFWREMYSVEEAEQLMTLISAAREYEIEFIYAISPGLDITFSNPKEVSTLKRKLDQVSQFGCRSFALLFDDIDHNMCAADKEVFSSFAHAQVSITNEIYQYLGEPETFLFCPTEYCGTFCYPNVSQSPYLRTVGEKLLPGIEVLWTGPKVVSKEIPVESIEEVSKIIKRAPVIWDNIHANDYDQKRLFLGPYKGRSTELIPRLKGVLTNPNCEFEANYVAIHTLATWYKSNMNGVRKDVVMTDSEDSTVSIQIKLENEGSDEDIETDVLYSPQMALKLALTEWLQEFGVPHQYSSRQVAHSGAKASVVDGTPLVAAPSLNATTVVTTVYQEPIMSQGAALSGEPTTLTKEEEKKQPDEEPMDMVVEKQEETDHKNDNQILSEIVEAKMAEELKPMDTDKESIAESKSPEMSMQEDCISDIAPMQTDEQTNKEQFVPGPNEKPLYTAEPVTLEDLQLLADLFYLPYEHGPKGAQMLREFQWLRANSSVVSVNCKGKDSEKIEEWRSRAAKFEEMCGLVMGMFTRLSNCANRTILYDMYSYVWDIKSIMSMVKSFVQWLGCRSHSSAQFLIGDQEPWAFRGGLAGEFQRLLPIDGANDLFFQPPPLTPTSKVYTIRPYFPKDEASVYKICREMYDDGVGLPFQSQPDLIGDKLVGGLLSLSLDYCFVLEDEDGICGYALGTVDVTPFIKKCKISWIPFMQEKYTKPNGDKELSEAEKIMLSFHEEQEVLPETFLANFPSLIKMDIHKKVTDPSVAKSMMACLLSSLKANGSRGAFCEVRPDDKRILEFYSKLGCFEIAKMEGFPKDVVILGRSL
Text: The assay is based on the inhibition of the hydrolysis of fluorescein mono-B-D-N-Acetyl-Glucosamine (FM-GlcNAc) (Mariappa et al. 2015, Biochem J 470:255) by the recombinant human Meningioma Expressed Antigen 5 (MGEA5), also referred to as 0-GlcNAcase (OGA). The hydrolysis FM-GlcNAc (Marker Gene technologies, cat # M1485) results in the formation of β-D-N-glucosamineacetate and fluorescein. The fluorescence of the latter can be measured at excitation wavelength 485 nm and emission wavelength 538 nm. An increase in enzyme activity results in an increase in fluorescence signal. Full length OGA enzyme was purchased at OriGene (cat # TP322411). The enzyme was stored in 25 mM Tris.HCl, pH 7.3, 100 mM glycine, 10% glycerol at −20° C. Thiamet G and GlcNAcStatin were tested as reference compounds (Yuzwa et al. 2008 Nature Chemical Biology 4:483; Yuzwa et al. 2012 Nature Chemical Biology 8:393). The assay was performed in 200 mM Citrate/phosphate buffer supplemented with 0.005% Tween-20. 35.6 g Na2HPO4 2 H2O (Sigma, # C0759) were dissolved in 1 L water to obtain a 200 mM solution. 19.2 g citric acid (Merck, #1.06580) was dissolved in 1 L water to obtain a 100 mM solution. pH of the sodiumphosphate solution was adjusted with the citric acid solution to 7.2. The buffer to stop the reaction consists of a 500 mM Carbonate buffer, pH 11.0. 734 mg FM-GlcNAc were dissolved in 5.48 mL DMSO to obtain a 250 mM solution and was stored at −20° C. OGA was used at a 10 nM (protocol A) or 2 nM (protocol B) concentration and FM-GlcNAc at a 100 uM final concentration. Dilutions were prepared in assay buffer.
50 nl of a compound dissolved in DMSO was dispensed on Black Proxiplate™ 384 Plus Assay plates (Perkin Elmer, #6008269) and 3 μl fl-OGA enzyme mix added subsequently. Plates were pre-incubated for 60 min at room temperature and then 2 μl FM-GlcNAc substrate mix added. […] Plates were briefly centrifuged for 1 min at 1000 rpm and incubate at room temperature for 1 h (10 nM OGA, protocol A) or 6 h (2 nM OGA, protocol B). To stop the reaction 5 μl STOP buffer were added and plates centrifuge again 1 min at 1000 rpm. Fluorescence was quantified in the Thermo Scientific Fluoroskan Ascent or the PerkinElmer EnVision with excitation wavelength 485 nm and emission wavelength 538 nm.
For analysis a best-fit curve is fitted by a minimum sum of squares method. From this an IC50 value and Hill coefficient was obtained. High control (no inhibitor) and low control (saturating concentrations of standard inhibitor) were used to define the minimum and maximum values.

[2] = target: T2, OGA (Homo sapiens, UniProt O60502); test: OGA cellular assay: ICC detection of O-GlcNAcylated proteins in HEK293 cells inducible for P301L mutant human Tau; assay type: cell-based; conditions: 6 hours incubation; for EC50: read-out: Cellular hOGA, pEC50 (converted)
T2 construct: endogenous in cells; host or cells: HEK293 cells inducible for P301L mutant human Tau (2N4R)
T2 sequence (O60502 1-916): T1 sequence (O60502 1-916)
Procedure: HEK293 cells inducible for P301L mutant human Tau (isoform 2N4R) were established at Janssen. Thiamet-G was used for both plate validation (high control) and as reference compound (reference EC50 assay validation). OGA inhibition is evaluated through the immunocytochemical (ICC) detection of O-GlcNAcylated proteins by the use of a monoclonal antibody (CTD110.6; Cell Signaling, #9875) detecting O-GlcNAcylated residues as previously described (Dorfmueller et al. 2010 Chemistry & biology, 17:1250).
Inhibition of OGA will result in an increase of 0-GlcNAcylated protein levels resulting in an increased signal in the experiment. Cell nuclei are stained with Hoechst to give a cell culture quality control and a rough estimate of immediate compounds toxicity, if any. ICC pictures are imaged with a Perkin Elmer Opera Phenix plate microscope and quantified with the provided software Perkin Elmer Harmony 4.1.
Cells were propagated in DMEM high Glucose (Sigma, #D5796) following standard procedures. 2 days before the cell assay cells are split, counted and seeded in Poly-D-Lysine (PDL) coated 96-wells (Greiner, #655946) plate at a cell density of 12,000 cells per cm^2 (4,000 cells per well) in 100 μl of Assay Medium (Low Glucose medium is used to reduce basal levels of GlcNAcylation) (Park et al. 2014 The Journal of biological chemistry 289:13519). At the day of compound test medium from assay plates was removed and replenished with 90 μl of fresh Assay Medium. 10 μl of compounds at a 10fold final concentration were added to the wells. Plates were centrifuged shortly before incubation in the cell incubator for 6 hours. DMSO concentration was set to 0.2%. Medium is discarded by applying vacuum. For staining of cells medium was removed and cells washed once with 100 μl D-PBS (Sigma, #D8537). From next step onwards unless other stated assay volume was always 50 μl and incubation was performed without agitation and at room temperature. Cells were fixed in 50 μl of a 4% paraformaldehyde (PFA, Alpha aesar, #043368) PBS solution for 15 minutes at room temperature. […] Before analysis samples were washed 2 times manually for 5 minutes in ICC base buffer.
Imaging is performed using Perkin Elmer Phenix Opera using a water 20× objective and recording 9 fields per well. Intensity readout at 488 nm is used as a measure of O-GlcNAcylation level of total proteins in wells. To assess potential toxicity of compounds nuclei were counted using the Hoechst staining. IC50-values are calculated using parametric non-linear regression model fitting. As a maximum inhibition Thiamet G at a 200 uM concentration is present on each plate. In addition, a concentration response of Thiamet G is calculated on each plate.

[3] = Enzymatic protocol A (10 nM OGA, 1 h), read-out: Enzymatic Emax (%)
[4] = Enzymatic protocol A (10 nM OGA, 1 h), read-out: Enzymatic hOGA, pIC50 (converted)
[5] = Enzymatic protocol B (2 nM OGA, 6 h), read-out: Enzymatic Emax (%)
[6] = Enzymatic protocol B (2 nM OGA, 6 h), read-out: Enzymatic hOGA, pIC50 (converted)

| Emax [1, 3] | IC50 [1, 4] | Emax [2] | EC50 [2] | Emax [1, 5] | IC50 [1, 6] | Enzymatic Emax (%) ([1]; Enzymatic protocol B (2 nM OGA, 6 h)) | melting point | Emax ([1]; comparative table, protocol not given, read-out: Emax (OGA inhibitory activity, comparison with 1,4-disubstituted piperidine comparator)) | IC50 ([1]; comparative table, protocol not given, read-out: pIC50 (OGA inhibitory activity, comparison with 1,4-disubstituted piperidine comparator) (converted)) | OGA inhibitory activity compared with comparator ([1]; greater than the corresponding 1,4-disubstituted piperidine compound (comparator)) | Compound |
| --- | --- | --- | --- | --- | --- | --- | --- | --- | --- | --- | --- |
| 98% | 155 nM | 95.6% | 2630 nM |  |  |  |  |  |  |  | CC(=O)Nc1ncc(CN2CCCC(c3nc4ncccc4n3C)C2)s1 (stereo not drawn) [Compound 20] |
|  |  | 120% | 17.8 nM | 124% | 42.7 nM |  |  |  |  |  | CC(=O)Nc1ncc(CN2CCCC(c3cc4cnccc4[nH]3)C2)s1 (stereo not drawn) [Compound 12] |
| 101% | 112 nM | 113% | 148 nM | 100% | 105 nM |  |  |  |  |  | CC(=O)Nc1ncc(CN2CCCC(c3cc4cccnc4[nH]3)C2)s1 (stereo not drawn) [Compound 8] |
| 92.3% | 1660 nM | 66.6% | 3630 nM | 79.1% | 2690 nM |  |  |  |  |  | CC(=O)Nc1ncc(CN2CCCC(c3cc4ncccc4[nH]3)C2)s1 (single isomer, unassigned) [Compound 6] |
| 101% | 302 nM | 101% | 2630 nM |  |  |  |  |  |  |  | CC(=O)Nc1ncc(CN2CCCC(c3nc4cccnc4n3C)C2)s1 (stereo not drawn) [Compound 21] |
|  |  | 103% | 18.2 nM | 100% | 74.1 nM |  |  |  |  |  | CC(=O)Nc1ncc(CN2CCCC(c3cc4ccncc4[nH]3)C2)s1 (stereo not drawn) [Compound 11] |
|  |  |  |  | 100% | 1.51 nM |  | 195.06 °C |  |  |  | CC(=O)Nc1ncc(CN2CCC(Cc3cc4cnccc4n3C)C2)s1 (stereo not drawn) [Compound 61] |
| 101% | 41.7 nM | 114% | 20.9 nM | 102% | 22.4 nM |  |  |  |  |  | CC(=O)Nc1ncc(CN2CC[C@@H](C)[C@H](c3cc4ncccc4[nH]3)C2)s1 (racemic) [Compound 22] |
|  |  | 98% | 7.94 nM | 99.8% | 2.14 nM |  |  |  |  |  | CC(=O)Nc1ncc(CN2CCC(Cc3cc4ncccc4[nH]3)C2)s1 (stereo not drawn) [Compound 24] |
| 104% | 18.2 nM | 114% | 21.4 nM | 100% | 25.1 nM |  |  | 104% | 18.2 nM | ~1 order of magnitude | CC(=O)Nc1ncc(CN2CCC[C@H](c3cc4ncccc4[nH]3)C2)s1 (single isomer, unassigned) [Compound 7] |

The next lines start with the compound.

| Compound | Emax [1, 3] | IC50 [1, 4] | Emax [2] | EC50 [2] | Emax [1, 5] | IC50 [1, 6] | Enzymatic Emax (%) ([1]; Enzymatic protocol B (2 nM OGA, 6 h)) | melting point | Emax ([1]; comparative table, protocol not given, read-out: Emax (OGA inhibitory activity, comparison with 1,4-disubstituted piperidine comparator)) | IC50 ([1]; comparative table, protocol not given, read-out: pIC50 (OGA inhibitory activity, comparison with 1,4-disubstituted piperidine comparator) (converted)) | OGA inhibitory activity compared with comparator ([1]; greater than the corresponding 1,4-disubstituted piperidine compound (comparator)) |
| --- | --- | --- | --- | --- | --- | --- | --- | --- | --- | --- | --- |
| CC(c1ccc2c(c1)OCO2)N1CCCC(c2cc3ncccc3[nH]2)C1 (single isomer, unassigned) [Compound 31] |  |  | 95.8% | 195 nM |  | 26.9 nM | 100.4% |  |  |  |  |
| CC(=O)Nc1ncc(CN2CCCC(Cc3cc4ncccc4n3C)C2)s1 (stereo not drawn) [Compound 26] |  |  | 118% | < 4.57 nM | 101% | 2.4 nM |  |  |  |  |  |
| CC(=O)Nc1ncc(S(=O)(=O)N2CCCC(c3cc4ncccc4[nH]3)C2)s1 (single isomer, unassigned) [Compound 4] | 99.7% | 178 nM | 44.3% | > 10000 nM | 99.4% | 186 nM |  |  |  |  |  |
| c1cnc2cc(C3CCCN(Cc4ccc5c(c4)OCCO5)C3)[nH]c2c1 (stereo not drawn) [Compound 39] | 98.2% | 617 nM | 90.3% | 3630 nM |  |  |  |  |  |  |  |
| CC(=O)Nc1ncc(CN2CC[C@@H](Cc3cc4ncccc4n3C)C2)s1 [Compound 58] |  |  |  |  | 102% | 2.69 nM |  | 187.16 °C |  |  |  |
| CC(c1ccc2c(c1)OCCO2)N1CCCC(c2cc3ncccc3[nH]2)C1 (racemic) [Compound 33] |  |  | 107% | 417 nM | 98.6% | 55 nM |  |  |  |  |  |
| CC(=O)Nc1ncc(CN2CC[C@H](Cc3cc4ncccc4n3C)C2)s1 [Compound 59] |  |  |  |  | 99.7% | 1.17 nM |  | 190.09 °C |  |  |  |
| CC(=O)Nc1ncc(CN2CCC(Cc3cc4ncccc4n3C)C2)s1 (stereo not drawn) [Compound 25] |  |  | 121% | 9.33 nM | 102% | 1.51 nM |  |  |  |  |  |
| CC(=O)Nc1ncc(CN2CCC(Cc3cc4cccnc4n3C)C2)s1 (stereo not drawn) [Compound 60] |  |  |  |  | 99.2% | 9.33 nM |  | 153.79 °C |  |  |  |
| CC(c1ccc2c(c1)OCCO2)N1CCCC(c2cc3ncccc3n2C)C1 (stereo not drawn) [Compound 40] |  |  | 75.1% | 955 nM | 102% | 61.7 nM |  |  |  |  |  |
| c1cnc2cc(C3CCCN(Cc4ccc5c(c4)OCCO5)C3)[nH]c2c1 (stereo not drawn) (as salt: HCl) [Compound 39] |  |  |  |  |  |  |  | 178.2 °C |  |  |  |

— patent publication US20190359609A1, “BICYCLIC OGA INHIBITOR COMPOUNDS” (Janssen Pharmaceutica NV, priority 2016, published 2019)
